{"source": "patent US7537910B2", "about": "“Lactamase amplification substrate” (Discoverx Corp., priority 2005, dated 2009)", "key": {"[1]": {"tested_on": "EA (enzyme acceptor fragment of β-galactosidase)", "assay": "Enzyme Fragment Complementation (EFC) assay", "type": "biochemical", "details": "50 nM ED, EA plus chemiluminescence substrate, 60 min room temperature; compared to linear ED (cysteines capped with maleimide)", "description": "For determination of EFC activity, 10 μL of 50 nM cyclic ED-Lactamase substrate (cED47mer) or 10 μl linear ED (Cysteines capped with maleimide, DiscoveRx, Fremont, Calif.) 50 nM was added to 20 μl EDDB Enzyme donor dilution buffer (MES 10 mM, NaCl 200 mM, EGTA 10 mM, BSA 2 mg/ml, NaN3 14.6 mM) (DiscoveRx, Fremont, Calif.) in a 384-well white plate."}, "TEM-1 lactamase": {"biological_target": "TEM-1 lactamase (Escherichia coli, UniProt P62593)", "details": "cED47mer 50 nM, CHOK1 cell lysates, 3-hour incubation with varying TEM1 lactamase (picomole), read 1 hr after EA and substrate", "procedure": "The assay comprises two basic steps: • 1) hydrolysis of the lactam in the cyclic ED lactamase substrate (cED 47mer) by the lactamase to yield a linear ED; and • 2) detection of the linear ED by EA and β-galactosidase chemiluminescent substrate. The lactamase reaction step comprises 101 of cell lysate (<4000 CHOK1 cells, DiscoveRx, Fremont, Calif.) or cell lysis buffer (part # 30-175, DiscoveRx, Fremont, Calif.), 10 μl cED47mer substrate at 50 nM and 10 μl of lactamase (TEM-1, Invitrogen Part # PV3575) at varying concentrations. The reaction mixture is then incubated at ambient temperature for various time intervals. The detection step comprises addition of 10 μL1 EA (1-2 μM, DiscoveRx, Fremont, Calif.) and 10 μl chemiluminescent substrate reagent (Applied Biosystems, Foster City, Calif.).\nThe chemiluminescence was read 1 hr after addition of EA and chemiluminescent substrate on a Packard Lumincount Reader (Packard Instruments, Meridien, Conn.) with the PMT set at 1100V and read time 1 second per well."}}}
{"substance": "cED47mer: 47-mer β-galactosidase enzyme donor peptide (SEQ ID NO:1) cyclized through its two cysteines with bis-maleimide cephem compound 3 (CSLAVVLQQRRDWENPGVTQLNRLAAHPPFASWRNSEEARTDCPSQQL; cyclized via cysteines with bis-maleimide cephem compound 3; …ON)", "values": [{"measurement": "EFC activity (FIG. 4)", "setting": "[1]", "result": "reduction of EFC activity"}, {"measurement": "chemiluminescence signal after cleavage with lactamase (FIG. 5)", "setting": "TEM-1 lactamase", "result": "increased with concentration of E. coli TEM1 lactamase (picomole) in a dose dependent fashion"}]}
